Measurements published in US5891851A, “Antibiotic, feglymycin, processes for its preparation and its use” (Hoechst Aktiengesellschaft, priority 1996, dated 1999).
*1 amine or outer side, *2 acyl side, *3 side chain or, on linkers, in order; H or OH if unused. Where a SMILES comes first, the peptide text is derived from it. [ ]: non-standard residue; d: D form. X1 = O=C(C(N[*:1])c1cc(O)cc(O)c1)[*:2]; Hpg = N[CH](C(=O)O)c1ccc(O)cc1

Assays:
[1] = test system: human immunodeficiency viruses; format: cell-based, human immunodeficiency virus
Protocol: The IC50 is less than 7 μg per ml. The inhibitory activity can be measured by light-microscopic observation of HIV-typical syncytia. In this connection, the reduction in syncytia formation is a measure of the activity of the agent, in this case of feglymycin. It is also possible, however, to determine the activity of feglymycin by measuring the amount of HIV particles in cell culture supernatants, e.g. by means of commercially available p24 antigen tests.

[2] = format: cell-based
Description: The tolerability of feglymycin in both the active concentration and even in higher concetrations is good. Cytotoxic effects or other toxicities were not observed.

[3] = format: physicochemical
Description: Stable in neutral and mildly alkaline medium, but unstable in strongly acidic or strongly alkaline solutions.

- IC50, inhibitory activity on human immunodeficiency viruses [1]: less than 7 μg per ml
Compound: CC(C)C(NC(=O)C(NC(=O)C(N)c1ccc(O)cc1)c1cc(O)cc(O)c1)C(=O)NC(C(=O)NC(C(=O)NC(C(=O)NC(C(=O)NC(C(=O)NC(C(=O)NC(C(=O)NC(C(=O)NC(Cc1ccccc1)C(=O)NC(CC(=O)O)C(=O)O)c1ccc(O)cc1)c1cc(O)cc(O)c1)C(C)C)c1cc(O)cc(O)c1)c1ccc(O)cc1)c1cc(O)cc(O)c1)c1ccc(O)cc1)c1cc(O)cc(O)c1 (stereo not drawn) [feglymycin] (H-[Hpg][X1]V[X1][Hpg][X1][Hpg][X1]V[X1][Hpg]FD-OH; configuration not given here)
- Cytotoxic effects or other toxicities [2]: not observed
- Solubility [3]: soluble in methanol, acetonitrile and water
